Source: US20250049740A1, “COMPOUND AND USE THEREOF IN PREPARATION OF MEDICAMENT FOR TREATING ALZHEIMER'S DISEASE” (priority 2024, published 2025)

Columns and labels:
Type in all cases: in vivo, mouse
wild-type mice C57BL/6J [1] = test: Y maze test, wild-type mice given OLDA / OLDA plus formula I
Procedure: (§1) 6-week-old female wild-type mice C57BL/6J were divided into a control group injected with normal saline (Ctrl), a diseased group (injected with OLDA), and a treatment group (Formula I-OLDA). The administration was carried out by intraperitoneal injection, and the diseased group (OLDA, 0.5 mg/kg to 1.5 mg/kg), the control group (injected with normal saline, the volume of which was equal to that in the diseased group), and the treatment group (0.5 mg/kg to 1.5 mg/kg of OLDA, and 0.5 mg/kg to 1.5 mg/kg of formula I, prepared into a mixed solution for administration) were all administered once a day by injection for 8 consecutive weeks. After administration, the learning and memory ability of the mice in each group was evaluated by Y maze and Morris water maze tests.

wild-type mice C57BL/6J [2] = test: Morris water maze test, wild-type mice given OLDA / OLDA plus formula I; details: for number of times of crossing the original platform location: platform removed
Procedure: as §1

Aβ and p-Tau181 [3] = test: IHC of AD-related biochemical markers in brain tissue (hippocampus), wild-type mice
Procedure: as §1
(§2) According to the standard operating procedure of mouse brain anatomy, the mice in the control group, diseased group and treatment group in Example 3 were sacrificed, and their brain tissues and colon tissues were collected respectively and cryopreserved at −80° C.
(§3) The brain tissues of the mice in the diseased group and control group in Example 4 were examined by IHC technology for AD-related biochemical markers, and examined by IHC technology for the related markers of brain neuroinflammation.
The brain tissues of the mice in the treatment group in Example 4 were examined by IHC technology for AD-related biochemical markers and compared with the diseased group.

[4] = test system: IBA-1 and GFAP positive cells; test: IHC of brain neuroinflammation markers, wild-type mice
Procedure: as §1, §2, §3
The brain tissues of the mice in the treatment group in Example 4 were examined by IHC technology for the related markers of brain neuroinflammation and compared with the diseased group.

colon tissue [5] = test: HE staining of colon tissue (colonic epithelium histopathology), wild-type mice
Procedure: as §1, with “tests. According to the standard operating procedure of mouse brain anatomy, the mice in the control group, diseased group and treatment group in Example 3 were sacrificed, and their brain tissues and colon tissues were collected respectively and cryopreserved at −80° C. The colon tissues in the diseased group and control group in Example 4 were examined by HE staining technology for colonic epithelium histopathology. The colon tissues of the mice in the treatment group in Example 4 were examined by HE staining technology for colonic epithelium histopathology and compared with the diseased group.” for “tests.”

3×Tg mice (AD mice) [6] = test: Y maze test, 3×Tg mice (AD mice) injected with formula I; details: 3×Tg mice injected with a composition containing formula I vs control group injected with normal saline
Excerpt: (§4) 3×Tg mice (AD mice) in Example 2 were directly injected with a composition containing formula I (treatment group).

3×Tg mice (AD mice) [7] = test: Morris water maze test, 3×Tg mice (AD mice) injected with formula I; details: 3×Tg mice injected with a composition containing formula I vs control group injected with normal saline
Excerpt: as §4

Aβ and p-Tau181 [8] = test: AD markers in hippocampus, 3×Tg mice injected with formula I; details: 3×Tg mice injected with a composition containing formula I vs control group injected with normal saline
Excerpt: as §4

[9] = test system: IBA-1 and GFAP positive cells; test: Brain neuroinflammation markers, 3×Tg mice injected with formula I; details: 3×Tg mice injected with a composition containing formula I vs control group injected with normal saline
Excerpt: as §4

colon tissue [10] = test: Colon tissue histopathology, 3×Tg mice injected with formula I; details: 3×Tg mice injected with a composition containing formula I vs control group injected with normal saline
Excerpt: as §4

[11] = OLDA 0.5 mg/kg to 1.5 mg/kg intraperitoneal once a day for 8 weeks, diseased group vs control group (normal saline)
[12] = OLDA diseased group vs control group
[13] = treatment group (OLDA and formula I, each 0.5 mg/kg to 1.5 mg/kg, mixed solution, intraperitoneal once a day, 8 weeks) vs diseased group (OLDA)
[14] = treatment group (OLDA and formula I) vs diseased group (OLDA)

Q: `CCCCCCCC/C=C\CCCCCCCC(=O)NCCc1ccc(O)c(O)c1` [OLDA, N-oleoyl-dopamine, reference compound] was tested. Which spontaneous alternation rate (wild-type mice C57BL/6J [1]; [11]) did it give?
A: The spontaneous alternation rate was “significantly reduced”.

Q: What about the “total number of arm entries” value (wild-type mice C57BL/6J [1]; [11]) of the same compound?
A: The value was “significantly reduced”.

Q: And the “time it took to find the platform (escape latency)” value (“time it took to find the platform” below) (wild-type mice C57BL/6J [2]; [11])?
A: The value was “significantly prolonged”.

Q: What about the “number of times of crossing the original platform location” value (wild-type mice C57BL/6J [2]; OLDA 0.5 mg/kg to 1.5 mg/kg intraperitoneal once a day for 8 weeks, diseased group vs control group) of the same compound?
A: Its value is “significantly reduced”.

Q: What about the “area of Aβ in the hippocampus” value (Aβ and p-Tau181 [3]; [12]) of the same compound?
A: Its value is “significantly increased”.

Q: What about the “area of p-Tau181 in the hippocampus” value (Aβ and p-Tau181 [3]; [12]) of the same compound?
A: The value was “significantly increased”.

Q: What about the “number of GFAP positive cells” value [4, 12] of the same compound?
A: Its value is “increased”.

Q: And the “number of IBA-1 positive cells” value [4, 12]?
A: The value was “increased”.

Q: What about the “inflammatory cells in the colon tissue” value (colon tissue [5]; [12]) of the same compound?
A: The value was “infiltrated into muscularis mucosa”.

Q: And the number of crypts (colon tissue [5]; [12])?
A: Its number of crypts is “decreased”.

Q: With `COc1cccc(NC(=O)/C=C/c2ccc(Cl)cc2)c1` [formula I] as the compound, how does the spontaneous alternation rate (wild-type mice C57BL/6J [1]; [13]) read?
A: Its spontaneous alternation rate is “significantly increased”.

Q: And the “total number of arm entries” value (wild-type mice C57BL/6J [1]; [13])?
A: Its value is “significantly increased”.

Q: And the “number of times of crossing the original platform location” value (wild-type mice C57BL/6J [2]; [14])?
A: Its value is “significantly increased”.

Q: And the “time it took to find the platform” value (wild-type mice C57BL/6J [2]; [13])?
A: The value was “significantly reduced”.

Q: What about the “area of Aβ in the hippocampus” value (Aβ and p-Tau181 [3]; [14]) of the same compound?
A: Its value is “significantly decreased”.

Q: What about the “area of p-Tau181 in the hippocampus” value (Aβ and p-Tau181 [3]; [14]) of the same compound?
A: Its value is “significantly decreased”.

Q: And the “number of GFAP positive cells” value [4, 14]?
A: Its value is “decreased”.

Q: And the “number of IBA-1 positive cells” value [4, 14]?
A: The value was “decreased”.

Q: And the “inflammatory cells in the colon tissue” value (colon tissue [5]; [14])?
A: The value was “infiltrated into muscularis mucosae”.

Q: What about the number of crypts (colon tissue [5]; [14]) of the same compound?
A: The number of crypts was “increased”.

Q: And the spontaneous alternation rate (3×Tg mice (AD mice) [6])?
A: The spontaneous alternation rate was “significantly increased”.

Q: What about the “total number of arm entries” value (3×Tg mice (AD mice) [6]) of the same compound?
A: The value was “significantly increased”.

Q: What about the “time it took to find the platform” value (3×Tg mice (AD mice) [7]) of the same compound?
A: Its value is “significantly reduced”.

Q: And the “number of times of crossing the original platform location” value (3×Tg mice (AD mice) [7]; platform removed)?
A: The value was “significantly reduced”.

Q: And the “area of Aβ in the hippocampus” value (Aβ and p-Tau181 [8])?
A: The value was “decreased”.

Q: And the “area of p-Tau181 in the hippocampus” value (Aβ and p-Tau181 [8])?
A: Its value is “decreased”.

Q: And the “number of GFAP positive cells” value [9]?
A: Its value is “decreased”.

Q: What about the “number of IBA-1 positive cells” value [9] of the same compound?
A: Its value is “decreased”.

Q: What about the “inflammatory cells in the colon tissue” value (colon tissue [10]) of the same compound?
A: The value was “infiltrated into muscularis mucosae”.

Q: And the number of crypts (colon tissue [10])?
A: The number of crypts was “increased”.
